This is an account of results in US20240210412A1, “SULFONYL-TRIAZOLE COMPOUNDS USEFUL AS LIGANDS AND INHIBITORS OF PROSTAGLANDIN REDUCTASE 2” (University of Virginia Patent Foundation, priority 2021, published 2024).

In experiment [1] the target is T1, recombinant prostaglandin reductase 2 (PTGR2) (Homo sapiens, UniProt Q8N8N7).
T1 construct: host or cells: HEK293T
As to the kind of experiment: in situ gel-based chemical proteomics competition, RJS-1027 probe. It counts as cell-based. The note with it: RJS-1027 1 μM, normalized to PTGR2 WT, two biological replicates, read-out: 50% inhibitory concentration (IC50), competition with probe labeling. As for the experimental part: HEK293T cells were grown to 30-40% confluency and transiently transfected with wild type PTGR2 or Y100F PTGR2 mutant plasmid or DMSO by dissolving 20 μL of PEI (1 mg/mL) and 2.6 μg of plasmid in 0.6 mL of serum-free DMEM media. Transfected HEK293T cells were incubated at 37° C. with 5% CO2 and were harvested for in vitro experiments. For in situ experiments, cells were treated with either DMSO or inhibitors at a final concentration of 1 μM, or the indicated concentration, of inhibitors from a 1,000× stock in serum-free media. Cells were subsequently incubated at 37° C. with 5% CO2 for 2 hours, followed by treatment with DMSO or probe at a final concentration of 1 μM from a 1,000× stock in serum-free media. Cells were harvested and pelleted at 400×g for 5 min and the supernatant was decanted. […]
Cell pellets were lysed in PBS buffer (EDTA free) by sonicating 3 times for 1 second×20% amplitude. […] Protein concentrations were measured using the Bio-Rad DC protein assay, and fractions were diluted to a concentration of 2 mg/mL in PBS. […] 30 μL of each sample were separated by SDSPAGE and analyzed by in-gel fluorescence scanning for the rhodamine azide tag. […]
Anti-flag and GAPDH western blots are shown below the long gel and were performed separately. Quantitation of RJG-2036 competition with probe labeling normalized to the PTGR2 WT with RJS-1027 as a probe is shown in FIG. 10C.

The target in experiment [2] is T2, PTGR2 (Homo sapiens, UniProt Q8N8N7).
T2 construct: host or cells: HEK293T
Briefly: in vitro gel-based chemical proteomics competition, RJS-1027 probe. It counts as binding. The note with it: inhibitor 0.5 μM, RJS-1027 1 μM, HEK293T soluble proteome. As for the experimental part:
Cell pellets were lysed in PBS buffer (EDTA free) by sonicating 3 times for 1 second×20% amplitude. The lysate was fractionated by centrifuging at 100,000×g for 45 min at 4° C., separating membrane and soluble fractions. Only the soluble fraction was used for in vitro and in situ experiments. Protein concentrations were measured using the Bio-Rad DC protein assay, and fractions were diluted to a concentration of 2 mg/mL in PBS. For live cell treated samples, 50 μL aliquots of proteome were used for gel experiments. For in vitro experiments, 48 μL aliquots of cell lysate were used for each inhibitor before adding 1 μL of 50× inhibitor stock (1 μM final) and incubated for 30 minutes at 37° C., then 1 μL of 50×probe stock (1 μM final) was added and the lysate incubated for 30 minutes at 37° C. […] 30 μL of each sample were separated by SDSPAGE and analyzed by in-gel fluorescence scanning for the rhodamine azide tag. […]
FIG. 9A is an image of an in vitro gel-based chemical proteomics assay using RJS-1027 (1 μM) as a probe to measure competition of binding PTGR2 with an inhibitor (0.5 μM). […] Quantitative comparison of inhibitor competition with probe labeling normalized to the negative control HHS-0101 is shown in FIG. 9B. […] Quantitative comparison of RJG-2036 competition with probe labeling normalized to the negative control HHS-0101 is shown in FIG. 9D.

Experiment [3] addresses T2, PTGR2. As to the kind of experiment: gel-based ABPP, HHS-475 probe, HEK293T cells expressing recombinant PTGR2. The format is cell-based. The note with it: 25 μM-0.1 μM, 2 h; HHS-475 25 μM 2 h; compared with AMC-0702, HHS-0701. As for the experimental part: HEK293T cells at 30-50% confluency were transfected with 2.6 μg of FAH or PTGR2 plasmid DNA in a serum-free media/polyethyleneimine solution for 48 hrs. The cells were washed once with warm, sterile DPBS (1×, 5 mL), and then 10 mL of serum-free media (supplemented with 1% L-glutamine) containing either DMSO or SuTEx fragment (in DMSO) was added. After 2 hrs, the cells were treated with 100 μM of SuTEx alkyne probe (HHS-475, 10 μL of 1000× DMSO stock) and incubated for an additional 2 hrs. The media was aspirated and cells washed with cold PBS (5 mL) and harvested. Cells were spun at 500×g for 5 min at 4° C. and supernatant was removed. Pellets were resuspended in 1 mL of cold DPB S and spun at 1,400×g for 3 min at 4° C. and supernatant was removed. The cells were lysed in PBS by sonication and fractionated (100,000×g, 45 min, 4° C.). The soluble fraction was diluted to 1 mg/mL in PBS and 49 μL was used for analysis. […] The samples were analyzed by SDS-PAGE (30 μL) and imaged by in-gel fluorescence scanning.
Confirmatory studies were also performed on prostaglandin reductase 2 (PTGR2) because of its role in the reduction of the bioactive lipid, 15-keto-PGE2^[17]. […] The remaining fluorescent signal detected on PTGR2 Y100F mutant protein is likely due to probe labeling of additional tyrosine sites identified on wild-type protein.
To assess the PTGR2 inhibitory activity of AMC-0702 and AMC-0703, HEK293T cells expressing PTGR2 were pretreated with vehicle, HHS-0101 (25 μM), HHS-0701 (25 μM), AMC-0702 (25 μM-0.1 μM), or AMC-0703 (25 μM-0.1 μM) for 2 hours followed by HHS-475 probe labelling in live cells (25 μM, 2 hours). Cells were lysed and probe-modified PTGR2 in proteomes detected by copper-catalyzed azide-alkyne cycloaddition conjugation of rhodamine-azide, SDS-PAGE, and in-gel fluorescence scanning. Inhibitory activity of compounds is determined by reductions in fluorescent band intensity from HHS-475 probe labeling of proteins detected in proteomes. […]

T2 sequence (Q8N8N7 whole entry): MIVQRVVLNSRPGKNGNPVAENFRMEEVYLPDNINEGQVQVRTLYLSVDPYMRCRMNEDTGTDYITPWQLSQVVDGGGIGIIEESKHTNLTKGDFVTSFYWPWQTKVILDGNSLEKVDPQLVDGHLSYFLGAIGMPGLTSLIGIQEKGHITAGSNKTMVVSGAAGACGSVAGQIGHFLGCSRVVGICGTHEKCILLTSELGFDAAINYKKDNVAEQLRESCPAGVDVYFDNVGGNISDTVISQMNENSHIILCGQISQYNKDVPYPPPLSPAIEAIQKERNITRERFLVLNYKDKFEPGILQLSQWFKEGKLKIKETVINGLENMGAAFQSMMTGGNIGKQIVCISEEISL
T1 sequence (Q8N8N7 whole entry): as above

Take `COc1ccccc1N1CCN(C(=O)c2cccc(S(=O)(=O)n3cncn3)c2)CC1` [RJG-2036, (3-((1H-1,2,4-triazol-1-yl)sulfonyl)phenyl)(4-(2-methoxyphenyl)piperazin-1-yl)methanone]: the IC50 in experiment [1] stood at 89.5 nM.

For `COc1ccccc1N1CCN(C(=O)c2ccc(S(=O)(=O)n3cnc(-c4cccnc4)n3)cc2)CC1` [RJG-1189, (4-(2-methoxyphenyl)piperazin-1-yl)(4-((3-(pyridin-3-yl)-1H-1,2,4-triazol-1-yl)sulfonyl)phenyl)methanone], the “competition of probe binding to PTGR2” value in experiment [2] is recorded as “potent inhibitors”.

`COc1ccccc1N1CCN(C(=O)c2ccc(S(=O)(=O)n3cncn3)cc2)CC1` [AMC-0703, (4-((1H-1,2,4-triazol-1-yl)sulfonyl)phenyl)(4-(2-methoxyphenyl)piperazin-1-yl)methanone]: in experiment [2], the “competition of probe binding to PTGR2” value is given as “potent inhibitors”. The “potency against PTGR2 (reduction of HHS-475 probe labeling)” value in experiment [3] is “highest potency against PTGR2”.
